Measurements taken from patent US11655244B2, “Carbazole compounds and methods of use thereof” (GSNO Therapeutics, Inc, priority 2017, dated 2023).
“Also recorded” adds a separate entry of the source. Read-outs that look alike come from different tables or passages of the source.

How the values were obtained:
[1] = biological target: GSNOR enzyme (Homo sapiens, UniProt P11766); assay: GSNOR inhibition assay (rate of NADH consumption, 340 nm absorbance); type: biochemical
Description: The following compounds were also prepared based on the methods described herein, using the appropriate starting materials. Table 2a and Table 2b also provides the % GSNOR inhibition at 20 μM of compounds described herein. […] The buffer was 100 mM phosphate buffer (pH 7.4.) The rate of NADH consumption for each well was determined by ultraviolet spectroscopy. Plates were read on a Molecular Devices Spectra Max UV/Visible Spectrophotometer/plate reader and the change in 340 nm absorbance at 25° C. was recorded for each well at 10 sec intervals over the duration of the recording period (2˜5 minutes). The rate was measured from the linear portion of the curve. Final test compound concentration was 20 μM. The mean % inhibition from 3 test compound wells and 5 control wells was measured as the percentage of the mean no compound+enzyme−the mean no enzyme, no compound control.

[2] = system: Bleomycin-induced idiopathic pulmonary fibrosis model in male C57BL/6 mice; assay: Bleomycin-induced idiopathic pulmonary fibrosis model; type: in vivo; conditions: 10 mg/kg, i.p., once daily from day 14 to 28
Description: Compound 17 was made-up fresh every 4 days. A required amount of the test compound was weighed in a glass vial and the purity factor was calculated. A stock solution of 1 mg/ml (10 mg/kg) was made in distilled water (pH 8) and the subsequent 3 and 1 mg/kg doses (concentrations) were obtained by serial dilution of the 1 mg/ml stock solution. A clear and transparent solution was observed. Animals were dosed with Compound 17 at 1 mg/kg, 3 mg/kg and 10 mg/kg, i.p (intraperitoneal), once daily from day 14 to 28.
Pirfenidone was weighed in a glass vial and suspended in 0.5% methyl cellulose to obtain a 10 mg/ml formulation. A clear homogenous suspension was observed. Animals were dosed with Pirfenidone at 100 mg/kg, p.o., b.i.d., from day 14 to 28.

[3] = system: collagen induced arthritis model in DBAJ1 mice; assay: Collagen induced arthritis model; type: in vivo; conditions: 15 mg/kg daily from day 8
Description: Compound 17 was tested in a collagen induced arthritis model in DBAJ1 mice. Compound 17 was started on day 8 when the arthritis was established, as in a therapeutic model, and the DBAJ1 mice were then treated daily with Compound 17 (15 mg/kg). Mice were challenged with bovine collagen II+complete adjuvant at day 0. Clinical scores were determined as follows: 0=normal; 0.5=erythema and edema in only one digit; 1=erythema and mild edema of the footpad, or ankle or two to five digits; 2=erythema and moderate edema of two joints (footpad, ankle, two to five digits); 3=erythema and severe edema of the entire paw; 4=reduced swelling and deformation leading to an incapacitated limb.
Measurement of anti-collagen antibodies in the collagen induced arthritis model of rheumatoid arthritis in DBAJ1 Mice was by an anti-collagen ELISA kit by standard methods.

Chain of GSNOR enzyme (P11766 whole entry): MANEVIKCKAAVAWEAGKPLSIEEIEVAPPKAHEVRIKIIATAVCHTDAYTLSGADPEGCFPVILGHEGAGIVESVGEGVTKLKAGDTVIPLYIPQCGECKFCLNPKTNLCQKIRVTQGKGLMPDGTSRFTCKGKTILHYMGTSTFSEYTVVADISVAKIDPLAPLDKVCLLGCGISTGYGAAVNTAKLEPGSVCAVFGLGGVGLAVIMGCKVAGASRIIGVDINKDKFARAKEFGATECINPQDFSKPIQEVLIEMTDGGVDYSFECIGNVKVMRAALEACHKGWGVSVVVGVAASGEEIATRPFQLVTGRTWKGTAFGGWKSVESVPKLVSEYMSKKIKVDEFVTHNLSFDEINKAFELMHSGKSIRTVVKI

SMILES: NC(=O)CCn1c2ccc(-n3ccnc3)cc2c2ccc(CCC(=O)O)cc21 [Compound 17, 3-(imidazol-1(H)-yl)-7-(2-carboxylethyl)-9(H)-(2-aminocarbonylethyl) carbazole]
- inhibition at 20 µM ([1]; Table 2a, test compound 20 μM, pH 7.4, 25° C., read-out: % Inhibit. at 20 μM): 92.8%
- inhibition at 20 µM ([1]; Table 2b, test compound 20 uM, read-out: % GSNOR Inhibition at 20 uM): 92.8%
- pulmonary fibrosis (Ashcroft score and percentage collagen proportionate area) vs disease control [2]: notable mitigation of pulmonary fibrosis; also recorded: decreased lung fibrosis
- arthritis (clinical score) [3]: inhibits arthritis
- production of anti-collagen antibodies ([3]; ELISA): inhibits production of anti-collagen antibodies
